Results as given in patent US20180000085A1, “USE OF PICOLINAMIDE COMPOUNDS WITH FUNGICIDAL ACTIVITY” (DOW AGROSCIENCES LLC, priority 2014, published 2018).

Experiments:
Type in all cases: in vivo
Zymoseptoria tritici = test: Leaf blotch of wheat (SEPTTR) disease control on wheat seedlings; settings: low volume application, 125.1 g/H; for SEPTTR 1DP, LV activity at 125.1 g/H (% Control rating): 1 Day Protectant; for SEPTTR 3DC, LV activity at 125.1 g/H (% Control rating): 3 Day Curative; for SEPTTR 1DP disease control rating, LV activity at 125.1 g/H: 1 day protectant; for SEPTTR 3DC disease control rating, LV activity at 125.1 g/H: 3 day curative
Phakopsora pachyrhizi = test: Asian soybean rust (PHAKPA) disease control; set-up: key: A: > 80; B: ≤ 80; C: Not Tested; D: No Activity Observed in the Reported Assay; settings: 25 ppm; for PHAKPA disease control, 1DP: 1 Day Protectant; for PHAKPA disease control, 3DC: 3 Day Curative
Puccinia triticina = test: Wheat brown rust (PUCCRT) disease control on wheat seedlings; settings: low volume application, 125.1 g/H; for PUCCRT 1DP, LV activity at 125.1 g/H (% Control rating): 1 Day Protectant; for PUCCRT 3DC, LV activity at 125.1 g/H (% Control rating): 3 Day Curative; for PUCCRT 1DP disease control rating, LV activity at 125.1 g/H: 1 day protectant; for PUCCRT 3DC disease control rating, LV activity at 125.1 g/H: 3 day curative

Row | Compound | SEPTTR 1DP, LV activity at 125.1 g/H (% Control rating) (Zymoseptoria tritici) | SEPTTR 3DC, LV activity at 125.1 g/H (% Control rating) (Zymoseptoria tritici) | PHAKPA disease control, 1DP (Phakopsora pachyrhizi) | PHAKPA disease control, 3DC (Phakopsora pachyrhizi) | PUCCRT 1DP, LV activity at 125.1 g/H (% Control rating) (Puccinia triticina) | PUCCRT 3DC, LV activity at 125.1 g/H (% Control rating) (Puccinia triticina) | SEPTTR 1DP disease control rating, LV activity at 125.1 g/H (Zymoseptoria tritici) | SEPTTR 3DC disease control rating, LV activity at 125.1 g/H (Zymoseptoria tritici) | PUCCRT 1DP disease control rating, LV activity at 125.1 g/H (Puccinia triticina) | PUCCRT 3DC disease control rating, LV activity at 125.1 g/H (Puccinia triticina)
1 | CCC(CC)[C@@H](Oc1ccc(F)cc1)[C@H](C)OC(=O)[C@H](C)NC(=O)c1nccc(OC)c1OC(C)=O [Cmpd 598] | A (> 80) | A (> 80) | A (> 80) | B (≤ 80) | A (> 80) | A (> 80) |  |  |  | 
2 | CCC(CC)[C@@H](Oc1cccc(Cl)c1)[C@H](C)OC(=O)[C@H](C)NC(=O)c1nccc(OC)c1OC(C)=O [Cmpd 599] | A (> 80) | A (> 80) | A (> 80) | A (> 80) | B (≤ 80) | A (> 80) |  |  |  | 
3 | CCC(CC)[C@@H](Oc1ccc(Cl)cc1)[C@H](C)OC(=O)[C@H](C)NC(=O)c1nccc(OC)c1OC(C)=O [Cmpd 600] | A (> 80) | A (> 80) | B (≤ 80) | B (≤ 80) | A (> 80) | A (> 80) |  |  |  | 
4 | CCC(CC)[C@@H](Oc1ccccc1Cl)[C@H](C)OC(=O)[C@H](C)NC(=O)c1nccc(OC)c1OC(C)=O [Cmpd 604] | B (≤ 80) | A (> 80) | B (≤ 80) | B (≤ 80) | A (> 80) | A (> 80) |  |  |  | 
5 | COc1ccnc(C(=O)N[C@@H](C)C(=O)O[C@@H](C)[C@H](Oc2cccc(F)c2)C(C)C)c1OCOC(C)=O [Cmpd 614] | B (≤ 80) | A (> 80) | A (> 80) | A (> 80) | A (> 80) | A (> 80) |  |  |  | 
6 | COc1ccnc(C(=O)N[C@@H](C)C(=O)O[C@@H](C)[C@H](Oc2ccc(F)cc2)C(C)C)c1OCOC(C)=O [Cmpd 615] | A (> 80) | A (> 80) | A (> 80) | B (≤ 80) | A (> 80) | A (> 80) |  |  |  | 
7 | COc1ccnc(C(=O)N[C@@H](C)C(=O)O[C@@H](C)[C@H](Oc2cc(F)ccc2F)C(C)C)c1OCOC(C)=O [Cmpd 616] | B (≤ 80) | A (> 80) | A (> 80) | A (> 80) | A (> 80) | A (> 80) |  |  |  | 
8 | COc1ccnc(C(=O)N[C@@H](C)C(=O)O[C@@H](C)[C@H](Oc2cccc3ccccc23)C(C)C)c1OCOC(C)=O [Cmpd 621] | B (≤ 80) | A (> 80) | A (> 80) | D | A (> 80) | A (> 80) |  |  |  | 
9 | COc1ccnc(C(=O)N[C@@H](C)C(=O)O[C@@H](C)[C@H](Oc2ccc(F)cc2)C(C)C)c1OC(C)=O [Cmpd 626] | A (> 80) | A (> 80) | A (> 80) | B (≤ 80) | A (> 80) | A (> 80) |  |  |  | 
10 | COc1ccnc(C(=O)N[C@@H](C)C(=O)O[C@@H](C)[C@H](Oc2cc(F)ccc2F)C(C)C)c1OC(C)=O [Cmpd 627] | B (≤ 80) | A (> 80) | B (≤ 80) | B (≤ 80) | A (> 80) | A (> 80) |  |  |  | 
11 | COc1ccnc(C(=O)N[C@@H](C)C(=O)O[C@@H](C)[C@H](Oc2ccccc2Cl)c2ccccc2)c1OCOC(C)=O [Cmpd 639] | B (≤ 80) | A (> 80) | A (> 80) | B (≤ 80) | A (> 80) | A (> 80) |  |  |  | 
12 | CCC(CC)[C@H](Oc1cccc(F)c1)[C@H](C)OC(=O)[C@H](C)NC(=O)c1nccc(OC)c1OCOC(C)=O [Cmpd 668] |  |  | B (≤ 80) | B (≤ 80) |  |  | A (> 80) | A (> 80) | A (> 80) | A (> 80)
13 | CCC(CC)[C@H](Oc1ccc(Cl)cc1)[C@H](C)OC(=O)[C@H](C)NC(=O)c1nccc(OC)c1OCOC(C)=O [Cmpd 669] |  |  | A (> 80) | B (≤ 80) |  |  | A (> 80) | A (> 80) | A (> 80) | A (> 80)
14 | CCC(CC)[C@H](Oc1ccc(Cl)cc1Cl)[C@H](C)OC(=O)[C@H](C)NC(=O)c1nccc(OC)c1OCOC(C)=O [Cmpd 670] |  |  | B (≤ 80) | B (≤ 80) |  |  | A (> 80) | A (> 80) | A (> 80) | A (> 80)
15 | C=CC(C)C(Oc1ccccc1)C(C)OC(=O)C(C)NC(=O)c1nccc(OC)c1OC(C)=O (stereo not drawn) [Cmpd 693] |  |  | A (> 80) | B (≤ 80) |  |  | B (≤ 80) | A (> 80) | A (> 80) | A (> 80)
16 | CCC[C@@H](Oc1ccccc1)[C@H](C)OC(=O)[C@H](C)NC(=O)c1nccc(OC)c1OC(C)=O [Cmpd 696] |  |  | A (> 80) | A (> 80) |  |  | A (> 80) | A (> 80) | A (> 80) | A (> 80)
17 | COc1ccnc(C(=O)N[C@@H](C)C(=O)O[C@@H](C)[C@H](OCC2CC2)c2cccc(-c3ccccc3)c2)c1OCOC(C)=O [Cmpd 873] |  |  | A (> 80) | B (≤ 80) |  |  | B (≤ 80) | A (> 80) | A (> 80) | A (> 80)
18 | COc1ccnc(C(=O)N[C@@H](C)C(=O)O[C@@H](C)[C@H](OCC(C)C)c2ccccc2)c1OC(C)=O [Cmpd 879] |  |  | A (> 80) | B (≤ 80) |  |  | B (≤ 80) | A (> 80) | A (> 80) | A (> 80)
19 | CCCO[C@H](c1ccccc1)[C@H](C)OC(=O)[C@H](C)NC(=O)c1nccc(OC)c1OC(C)=O [Cmpd 884] |  |  | A (> 80) | D |  |  | B (≤ 80) | A (> 80) | A (> 80) | A (> 80)
